Substitutions are numbered along the chain they refer to. Entries after “also recorded” stand apart in the source; their conditions may differ. Where a SMILES comes first, the peptide text is derived from it. [ ]: non-standard residue; d: D form. pT = C[C@@H](OP(=O)(O)O)[C@H](N)C(=O)O
Columns and labels:
[1] = molecular target: T1, mutant of PDK1 in which both Lys76 and Arg131 were changed to Ala (Homo sapiens, UniProt O15530, K76A/R131A); assay: PDK1 catalytic activity towards T308tide, activation by peptides, Lys76 and Arg131 to Ala double mutant; assay type: biochemical; details: peptide 0.3 and 1 mM, compared with PDK1[R131A]
T1 construct: GST (N); made in house; host or cells: human embryonic kidney 293 cells (pEBG2T vector)
Protocol: (§1) C. Activation of the indicated forms of PDK1 by 56K-pHM and S6K-HM. PDK1 activity was measured using the peptide substrate (T308tide) in the presence of the indicated concentrations of 56K-pHM (closed circles) and S6K-HM (open circles) as described in the methods. Assays were performed in triplicate and similar results obtained in 2 separate experiments. The results are the average—SD for a single experiment.
(§2) The ability of wild type and mutant PDK1 to phosphorylate the synthetic peptide T308tide ([…] ([Biondi et al., 2000]) (SEQ ID NO:108) was carried out in 30 μl assays containing 100 ng of wild type or mutant PDK1, 50 mM Tris/HCl pH 7.5, 0.1% 13-mercaptoethanol, 10 mM MgCl2, 100 μM [32γ P]ATP (200 cpm/pmol), 0.5 μM microcystin-LR, 1 mM T308tide in the presence or absence of the indicated concentrations of the 56K-pHM peptide ([…](P)YVAPSV) (SEQ ID NO:104) or 56K-HM. peptide ([…]) (SEQ ID NO:105). After incubation for 10 min at 30° C., 25 μl of the resultant mixture was spotted into P81 phosphocellulose paper (2×2 cm) and the papers washed and analysed as described previously for assays of MAP kinase. Control assays were carried out in parallel in which either PDK1, or peptide substrate were omitted; these values were always less than 5% of the activity measured in the presence of these reagents. […]

PDK1[T148A] = molecular target: T2, PDK1[T148A] (Homo sapiens, UniProt O15530, T148A); assay: PDK1 catalytic activity towards T308tide, activation by peptides, PDK1[T148A]; assay type: biochemical; parameters: made in house; details: T308tide substrate
T2 sequence (O15530 1-556 T148A): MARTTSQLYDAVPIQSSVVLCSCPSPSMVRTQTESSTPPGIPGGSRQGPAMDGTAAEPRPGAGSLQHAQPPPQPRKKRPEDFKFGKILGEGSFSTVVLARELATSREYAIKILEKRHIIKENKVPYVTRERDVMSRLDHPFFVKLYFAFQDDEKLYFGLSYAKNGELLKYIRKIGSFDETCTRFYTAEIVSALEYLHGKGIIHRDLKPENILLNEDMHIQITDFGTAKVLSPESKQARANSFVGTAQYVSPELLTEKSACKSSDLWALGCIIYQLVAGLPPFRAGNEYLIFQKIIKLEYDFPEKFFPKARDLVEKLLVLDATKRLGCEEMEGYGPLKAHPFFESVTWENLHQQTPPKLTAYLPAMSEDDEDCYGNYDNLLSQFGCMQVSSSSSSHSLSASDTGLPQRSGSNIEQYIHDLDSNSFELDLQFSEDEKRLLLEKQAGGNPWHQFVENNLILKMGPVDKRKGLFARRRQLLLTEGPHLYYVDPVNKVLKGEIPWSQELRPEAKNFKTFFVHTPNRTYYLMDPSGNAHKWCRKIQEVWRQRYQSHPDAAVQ
Protocol: as §1, §2

PDK1[Q150A] [2] = molecular target: T3, PDK1[Q150A] (Homo sapiens, UniProt O15530, Q150A); assay: PDK1 catalytic activity towards T308tide, activation by peptides, PDK1[Q150A]; assay type: biochemical; parameters: made in house
T3 sequence (O15530 1-556 Q150A): T2 sequence (O15530 1-556 T148A) with A148T, Q150A
Protocol: as §1, §2

PDK1[Q150A] [3] = molecular target: T3, PDK1[Q150A]; assay: Surface plasmon resonance (BiaCore) binding, PDK1[Q150A]; parameters: made in house; host or cells: human embryonic kidney 293 cells (pEBG2T vector)
Protocol: Binding and activation of wild type and mutant forms of PDK1 to a phosphopeptide derived from the hydrophobic motif of S6K1. The binding of the wild type (wt) PDK1 and indicated mutants to a phosphopeptide comprising the hydrophobic motif of S6K1 (S6K-pHM: […]*YVAPSV, where T* indicates phospho-threonine, SEQ ID NO:104) was analysed by surface plasmon resonance as described in the Materials and Methods.
A. The sensor chip SA was coated with 12RUs of the biotinylated S6K-pHM peptide and the binding was analysed following injection of 270 nM wild type PDK1, PDK1 [T148A] and PDK1 [K76A]. […] (data not shown).
Binding was analysed in a BiaCore 3000 system (BiaCore AB, Stevenage, UK). Biotinylated S6K-pHM (Biotin-C12-[…](P)YVAPSV) (SEQ ID NO:104) or the non-phosphorylated form of this peptide S6K-HM was bound to an streptavidin-coated Sensor chip (SA) (12 response units, RU). 30 μl of wild type or the indicated mutant GST-PDK1 were injected at a flow rate of 30 μl/min, in buffer HBS-P (10 mM HEPES pH 7.4, 0.15M NaCl, 0.005% (by vol) polysorbate-20) supplemented with 1 mM DTT. Specific interactions between 56K-pHM and PDK1 proteins were obtained between the concentration range of 2-2150 nM PDK1. Steady state binding was determined at each concentration. Dissociation of PDK1 from the phospho-peptide was monitored over a 1 min period. […]

T1 sequence (O15530 whole entry K76A/R131A): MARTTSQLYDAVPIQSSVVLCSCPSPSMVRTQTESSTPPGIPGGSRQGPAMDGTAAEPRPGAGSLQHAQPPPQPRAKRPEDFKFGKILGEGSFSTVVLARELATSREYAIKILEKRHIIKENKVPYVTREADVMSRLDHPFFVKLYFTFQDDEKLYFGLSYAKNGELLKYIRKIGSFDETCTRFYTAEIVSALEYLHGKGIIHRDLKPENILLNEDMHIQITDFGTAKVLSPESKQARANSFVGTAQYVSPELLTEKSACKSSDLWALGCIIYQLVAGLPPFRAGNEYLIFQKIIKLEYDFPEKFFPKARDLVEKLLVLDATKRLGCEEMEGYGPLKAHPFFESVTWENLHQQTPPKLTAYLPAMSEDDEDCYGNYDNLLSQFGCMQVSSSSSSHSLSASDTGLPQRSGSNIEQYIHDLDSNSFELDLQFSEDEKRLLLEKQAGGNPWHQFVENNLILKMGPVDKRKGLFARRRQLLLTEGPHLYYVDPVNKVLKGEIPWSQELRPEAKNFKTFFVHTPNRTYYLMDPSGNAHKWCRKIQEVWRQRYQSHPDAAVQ

CC(C)C[C@H](NC(=O)[C@H](Cc1ccccc1)NC(=O)[C@@H](NC(=O)[C@H](CCC(N)=O)NC(=O)[C@H](CC(N)=O)NC(=O)[C@H](C)NC(=O)[C@H](CO)NC(=O)[C@H](CCC(=O)O)NC(=O)[C@@H](N)CO)C(C)C)C(=O)NCC(=O)N[C@@H](Cc1ccccc1)C(=O)N[C@H](C(=O)N[C@@H](Cc1ccc(O)cc1)C(=O)N[C@H](C(=O)N[C@@H](C)C(=O)N1CCC[C@H]1C(=O)N[C@@H](CO)C(=O)N[C@H](C(=O)O)C(C)C)C(C)C)[C@@H](C)OP(=O)(O)O [S6K-pHM] (H-SESANQVFLGF[pT]YVAPSV-OH; N-terminus and C-terminus assumed)
activation of Lys76/Arg131 to Ala double mutant [1]: activated even less significantly
activation of PDK1[T148A] (PDK1[T148A]): activated similarly as wild type PDK1
activation of PDK1[Q150A] (PDK1[Q150A] [2]; peptide 0.3 and 1 mM): 2-3 fold
activation of PDK1[Q150A] (PDK1[Q150A] [2]; peptide below 0.1 mM): not significantly activated
binding of PDK1[Q150A] to peptide (PDK1[Q150A] [3]): No detectable binding; also recorded: did not detectably interact
